Source: PMC7909954 (eLife, 2021)
Where two headings read alike, the source gives them in different places.

Experiments:
mMOR [1] = molecular target: T1, mMOR (Mus musculus, UniProt P42866); experiment: cell-based
mDOR [2] = molecular target: T2, mDOR (Mus musculus, UniProt P32300); experiment: cell-based
mMOR [3] = molecular target: T1, mMOR; experiment: biochemical
Y312W-hKOR [4] = molecular target: T3, Y312W-hKOR (Homo sapiens, UniProt P41145, Y312W)
rKOR [5] = molecular target: T4, rKOR (Rattus norvegicus, UniProt P34975); experiment: cell-based; conditions: HEK-293T, read-out: Emax% arrestin recruitment (BRET) rKOR
T4 sequence (P34975 whole entry): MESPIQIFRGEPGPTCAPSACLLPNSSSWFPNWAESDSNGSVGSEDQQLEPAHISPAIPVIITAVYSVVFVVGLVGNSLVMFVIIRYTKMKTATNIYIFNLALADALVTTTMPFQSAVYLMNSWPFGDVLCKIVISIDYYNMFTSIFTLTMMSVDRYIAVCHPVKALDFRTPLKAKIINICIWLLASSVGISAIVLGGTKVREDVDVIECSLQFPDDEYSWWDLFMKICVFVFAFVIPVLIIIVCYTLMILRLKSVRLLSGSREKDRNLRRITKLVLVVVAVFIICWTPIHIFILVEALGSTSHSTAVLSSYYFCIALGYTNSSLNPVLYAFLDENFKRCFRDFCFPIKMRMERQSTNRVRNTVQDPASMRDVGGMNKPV

DOR [6] = molecular target: T5, DOR (Homo sapiens, UniProt P41143); experiment: cell-based
T5 sequence (P41143 whole entry): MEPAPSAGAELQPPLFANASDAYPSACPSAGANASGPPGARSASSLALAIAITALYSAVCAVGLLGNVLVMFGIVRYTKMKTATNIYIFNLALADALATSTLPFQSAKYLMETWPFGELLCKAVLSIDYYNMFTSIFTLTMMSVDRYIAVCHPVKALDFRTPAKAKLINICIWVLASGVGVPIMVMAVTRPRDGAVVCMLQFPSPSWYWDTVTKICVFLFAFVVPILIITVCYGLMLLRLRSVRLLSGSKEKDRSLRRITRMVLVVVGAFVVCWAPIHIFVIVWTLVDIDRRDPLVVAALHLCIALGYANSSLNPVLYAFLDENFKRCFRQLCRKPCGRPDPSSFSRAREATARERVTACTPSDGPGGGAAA

rKOR [7] = molecular target: T4, rKOR
mMOR [8] = molecular target: T1, mMOR; experiment: cell-based; set-up: expressed in transfected cells; host or cells: HEK-293T
mDOR [9] = molecular target: T2, mDOR; experiment: biochemical; conditions: read-out: Emax mDOR [35S]GTPγS
Y312W-hKOR [10] = molecular target: T3, Y312W-hKOR; experiment: cell-based; conditions: read-out: Emax% cAMP inhibition Y312W-hKOR
DOR [11] = molecular target: T5, DOR; experiment: cell-based; remark: listed apart in the source
KOR [12] = molecular target: T6, KOR (Homo sapiens, UniProt P41145); experiment: cell-based
T6 sequence (P41145 whole entry): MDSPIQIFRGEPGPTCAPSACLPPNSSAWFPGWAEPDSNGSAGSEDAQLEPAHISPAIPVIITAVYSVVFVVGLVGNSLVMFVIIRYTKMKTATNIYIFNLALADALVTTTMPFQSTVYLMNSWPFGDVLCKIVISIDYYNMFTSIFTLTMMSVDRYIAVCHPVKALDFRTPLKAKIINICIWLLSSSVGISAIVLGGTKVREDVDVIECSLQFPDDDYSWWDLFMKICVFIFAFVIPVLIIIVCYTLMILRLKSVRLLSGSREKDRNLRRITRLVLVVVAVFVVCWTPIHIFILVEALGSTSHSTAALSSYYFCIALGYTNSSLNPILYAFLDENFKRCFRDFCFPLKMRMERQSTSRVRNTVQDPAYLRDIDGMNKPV

rKOR [13] = molecular target: T4, rKOR; experiment: cell-based; conditions: HEK-293T, read-out: Emax% G protein activation (BRET) rKOR
mDOR [14] = molecular target: T2, mDOR; experiment: cell-based; remark: listed apart in the source
MOR [15] = molecular target: T7, MOR (Homo sapiens, UniProt P35372); experiment: cell-based
T7 sequence (P35372 whole entry): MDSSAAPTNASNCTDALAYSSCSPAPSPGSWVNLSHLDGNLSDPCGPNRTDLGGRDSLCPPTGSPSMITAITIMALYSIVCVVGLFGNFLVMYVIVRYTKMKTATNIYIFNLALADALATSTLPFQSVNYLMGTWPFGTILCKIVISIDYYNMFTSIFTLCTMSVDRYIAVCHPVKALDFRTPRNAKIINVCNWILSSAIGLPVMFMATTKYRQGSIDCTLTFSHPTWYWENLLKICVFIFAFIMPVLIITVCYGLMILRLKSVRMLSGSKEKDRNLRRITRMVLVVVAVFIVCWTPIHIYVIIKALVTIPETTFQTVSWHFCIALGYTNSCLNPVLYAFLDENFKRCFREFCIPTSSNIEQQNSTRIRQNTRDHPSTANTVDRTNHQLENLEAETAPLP

Y312W-hKOR [16] = molecular target: T3, Y312W-hKOR; experiment: cell-based
KOR [17] = molecular target: T6, KOR; experiment: cell-based; remark: listed apart in the source
mKOR [18] = molecular target: T8, mKOR (Mus musculus, UniProt P33534); experiment: biochemical
T8 sequence (P33534 whole entry): as the sequence (P34975 whole entry) above, with E11D, A17S, P51S, V308A counted along it

mMOR [19] = molecular target: T1, mMOR
MOR [20] = molecular target: T7, MOR; experiment: cell-based; remark: listed apart in the source
mMOR [21] = molecular target: T1, mMOR; experiment: biochemical; remark: listed apart in the source
mKOR [22] = molecular target: T8, mKOR; experiment: biochemical; remark: listed apart in the source
MOR [23] = molecular target: T7, MOR
KOR [24] = molecular target: T6, KOR
[25] = transduction coefficient log(T/KA)

T1 sequence (P42866 whole entry): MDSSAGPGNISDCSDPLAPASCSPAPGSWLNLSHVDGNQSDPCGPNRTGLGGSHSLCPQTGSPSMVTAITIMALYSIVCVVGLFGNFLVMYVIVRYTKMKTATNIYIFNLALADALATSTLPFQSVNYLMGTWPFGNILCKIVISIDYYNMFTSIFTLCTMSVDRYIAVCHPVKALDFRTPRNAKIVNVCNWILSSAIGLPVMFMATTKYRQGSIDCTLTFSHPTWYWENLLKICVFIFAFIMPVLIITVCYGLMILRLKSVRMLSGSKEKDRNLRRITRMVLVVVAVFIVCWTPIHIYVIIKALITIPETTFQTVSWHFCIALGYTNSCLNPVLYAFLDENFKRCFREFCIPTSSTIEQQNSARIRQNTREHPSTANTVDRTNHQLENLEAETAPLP
T3 sequence (P41145 whole entry Y312W): as the sequence (P41145 whole entry) above, with Y312W counted along it
T2 sequence (P32300 whole entry): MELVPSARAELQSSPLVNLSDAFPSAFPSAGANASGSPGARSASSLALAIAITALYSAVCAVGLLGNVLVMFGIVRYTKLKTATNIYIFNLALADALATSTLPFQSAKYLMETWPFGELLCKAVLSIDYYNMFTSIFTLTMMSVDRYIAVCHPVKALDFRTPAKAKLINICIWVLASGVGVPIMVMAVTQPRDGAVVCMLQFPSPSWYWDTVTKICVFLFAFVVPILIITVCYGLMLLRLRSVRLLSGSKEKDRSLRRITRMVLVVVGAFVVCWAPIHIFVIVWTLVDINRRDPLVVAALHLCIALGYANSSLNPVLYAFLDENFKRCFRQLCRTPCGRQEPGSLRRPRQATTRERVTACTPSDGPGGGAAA

For `O=C(N[C@@H]1CCC2C3Cc4ccc(O)c5c4[C@@]2(CCN3CC2CC2)C1O5)c1cccc(I)c1` (stereo partly drawn) [MP1202, N-((7R,12bS)−3-(Cyclopropylmethyl)−9-hydroxy-2,3,4,4a,5,6,7,7a-octahydro-1H-4,12-methanobenzofuro[3,2-e]isoquinolin-7-yl)−3-iodobenzamide], the EC50 (mMOR [1]; EC50 G protein activation (BRET) mMOR) was 0.63 nM, the Emax (mMOR [1]; HEK-293T, read-out: Emax% G protein activation (BRET) mMOR) was 70% and the EC50 (mDOR [2]; EC50 G protein activation (BRET) mDOR) was 7.03 nM. The Emax (mDOR [2]; HEK-293T, read-out: Emax% G protein activation (BRET) mDOR) was 103 ± 4.6%, the EC50 (mDOR [2]; pEC50 G protein activation (BRET) mDOR, ± SEM) was 7.94 nM and the EC50 (mMOR [3]; EC50 mMOR [35S]GTPγS, ± SEM) was 0.32 ± 0.03 nM. The Emax (mMOR [3]; read-out: Emax mMOR [35S]GTPγS) was 68 ± 1%, the “Log RA cAMP Y312W-hKOR” value (Y312W-hKOR [4]) was 10.63±0.005 and the “LogRA Tango Y312W-hKOR” value (Y312W-hKOR [4]) was 8.091±0.051. The “ΔΔlog RA (cAMP-Tango) Y312W-hKOR” value (Y312W-hKOR [4]) was 1.53±0.073, the “Bias factor (cAMP-Tango) Y312W-hKOR” value (Y312W-hKOR [4]; vs U50,488h) was 34 and the “ΔlogRA Tango Y312W-hKOR” value (Y312W-hKOR [4]; vs U50,488h) was 0.532±0.073. The “ΔlogRA cAMP Y312W-hKOR” value (Y312W-hKOR [4]; vs U50,488h) was 2.062±0.007, the Emax (rKOR [5]) was 77 ± 5% and the EC50 (DOR [6]; EC50 cAMP inhibition hDOR) was 8.18 nM. For the same molecule, the Emax (DOR [6]; HEK-293T, read-out: Emax% cAMP inhibition hDOR) was 99 ± 2.2%, the “Log RA BRET-G rKOR” value (rKOR [7]) was 9.906±0.088 and the “LogRA BRET-Arr rKOR” value (rKOR [7]) was 8.791±0.171. For the same molecule, the “ΔΔlog RA (BRETG-BRETArr) rKOR” value (rKOR [7]) was -0.399±0.27, the “ΔlogRA BRET-G rKOR” value (rKOR [7]; vs U50,488h) was 1.594±0.117 and the “ΔlogRA BRET-arr rKOR” value (rKOR [7]; vs U50,488h) was 1.993±0.239. For the same molecule, the EC50 (mMOR [8]) was 3140 nM, the “Emax% arrestin recruitment (BRET) mMOR” value (mMOR [8]) was 53 ± 1.6% and the Emax (mMOR [8]; HEK-293T, read-out: Emax% arrestin recruitment (BRET) mMOR) was 57%. For the same molecule, the Emax (mDOR [9]) was 71 ± 2%, the Emax (Y312W-hKOR [10]) was 101 ± 1.5% and the EC50 (DOR [11]; EC50 arrestin recruitment hDOR, Tango) was 18.1 nM. For the same molecule, the Emax (DOR [11]; HTLA, read-out: Emax% arrestin recruitment hDOR) was 26 ± 3.1%, the EC50 (KOR [12]; EC50 cAMP inhibition hKOR) was 0.00139 nM and the Emax (KOR [12]; HEK-293T, read-out: Emax% cAMP inhibition hKOR) was 97.9 ± 2.5%. It also gave an Emax (rKOR [13]) of 104 ± 2%, an EC50 (mDOR [14]; EC50 arrestin recruitment (BRET) mDOR) of 525 nM and an Emax (mDOR [14]; HEK-293T, read-out: Emax% arrestin recruitment (BRET) mDOR) of 26 ± 2.3%. For the same molecule, the EC50 (MOR [15]) was 26.8 nM, the Emax (MOR [15]; HTLA, read-out: Emax% arrestin recruitment (Tango) hMOR) was 53 ± 2% and the EC50 (Y312W-hKOR [16]) was 3.4 nM. It also gave an Emax (Y312W-hKOR [16]; read-out: Emax% arrestin recruitment (Tango) Y312W-hKOR) of 55 ± 2.6%, an EC50 (KOR [17]; EC50 arrestin recruitment (Tango) hKOR) of 0.0457 nM and an Emax (KOR [17]; HTLA, read-out: Emax% arrestin recruitment (Tango) hKOR) of 101 ± 1%. The Ki (mKOR [18]) was 0.11 ± 0.064 nM, the “Emax% G protein activation (BRET) mMOR” value (mMOR [19]) was 61±1.5% and the EC50 (MOR [20]; EC50 cAMP inhibition hMOR) was 0.077 nM. For the same molecule, the Emax (MOR [20]; HEK-293T, read-out: Emax% cAMP inhibition hMOR) was 92 ± 1.4%, the Ki (mMOR [21]) was 0.071 ± 0.031 nM and the EC50 (mKOR [22]; EC50 mKOR [35S]GTPγS, ± SEM) was 0.13 ± 0.02 nM. For the same molecule, the Emax (mKOR [22]; read-out: Emax mKOR [35S]GTPγS) was 94 ± 5%, the “Bias factor (cAMP-Tango) hMOR” value (MOR [23]) was 31 and the “Log RA cAMP hMOR” value (MOR [23]) was 9.99±0.012. The “LogRA Tango hMOR” value (MOR [23]) was 7.24±0.002, the “ΔlogRA Tango hMOR” value (MOR [23]) was 0.058±0.002 and the “ΔlogRA cAMP hMOR” value (MOR [23]) was 1.55±0.016. The “ΔΔlog RA (cAMP-Tango) hMOR” value (MOR [23]) was 1.49±0.016, the “ΔΔlog RA (cAMP-Tango) hKOR” value (KOR [24]) was -0.19±0.072 and the “Log RA cAMP hKOR” value (KOR [24]; [25]) was 11.88±0.050. The “LogRA Tango hKOR” value (KOR [24]; [25]) was 10.30±0.004, the “ΔlogRA Tango hKOR” value (KOR [24]; vs U50,488h) was 1.856±0.006 and the “ΔlogRA cAMP hKOR” value (KOR [24]; vs U50,488h) was 1.66±0.072.
